The supplement of paper PMC9763283

Legend:
Assay in all cases: area under growth-rate inhibition curve (AUC GRI) (dimensionless (GR-based AUC)); higher = less growth inhibition
Conditions in all cases: exposure time: 72 h; concentrations: 0.1, 1, 10 uM
BT474-LTR = test system: BT474-LTR
How it was run: (§1)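 Six breast cancer cell line models were used: two triple-negative lines, plus parental HER2+ lines and HER2+ lines resistant to a two-drug combination, each plated at an optimised log-phase density and treated with compound at 0.1, 1 or 10 µM for 72 h. After fixation in 4% paraformaldehyde, nuclei were stained with Hoechst 33342 or DAPI, imaged and counted. Growth was corrected using Day 0 plates, untreated Day 3 plates and DMSO controls, with 2 biological replicates. These corrected counts gave the area under the growth-rate inhibition curve.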

BT474-P = test system: BT474-P
How it was run: as §1

MDA-MB-231 = test system: MDA-MB-231
How it was run: as §1

MDA-MB-468 = test system: MDA-MB-468
How it was run: as §1

SKBR3-LTR = test system: SKBR3-LTR
How it was run: as §1

SKBR3-P = test system: SKBR3-P
How it was run: as §1

Structure (SMILES) | area under growth-rate inhibition curve (BT474-LTR) | area under growth-rate inhibition curve (BT474-P) | area under growth-rate inhibition curve (MDA-MB-231) | area under growth-rate inhibition curve (MDA-MB-468) | area under growth-rate inhibition curve (SKBR3-LTR) | area under growth-rate inhibition curve (SKBR3-P)
OCCN(CCO)c1nc(N2CCCCC2)c2nc(N(CCO)CCO)nc(N3CCCCC3)c2n1 [Dipyridamole] | 1.12 | 1.04 | 0.97 | 0.962 | 1.05 | 1.05
CC(CCc1ccc(O)cc1)NCCc1ccc(O)c(O)c1.[Cl-].[H+] (centres undefined) [Dobutamine hydrochloride] | 1.01 | 0.992 | 1.02 | 1.04 | 1.07 | 1.03
O=c1[nH]c2ccccc2n1CCCN1CCC(n2c(=O)[nH]c3cc(Cl)ccc32)CC1 [Domperidone] | 1 | 0.993 | 1.01 | 0.926 | 1.04 | 0.962
NCCc1ccc(O)c(O)c1.[Cl-].[H+] [Dopamine HCl] | 1.11 | 1.04 | 1.02 | 1.03 | 1.07 | 1.02
COc1cc2nc(N3CCN(C(=O)C4COc5ccccc5O4)CC3)nc(N)c2cc1OC.CS(=O)(=O)O (centres undefined) [Doxazosin Mesylate] | 1.07 | 0.991 | 0.99 | 0.966 | 1.03 | 0.958
O=C(CCCN1CC=C(n2c(=O)[nH]c3ccccc32)CC1)c1ccc(F)cc1 [Droperidol] | 1.04 | 1.03 | 1.02 | 0.992 | 1.07 | 1.02
CC12CCC(=O)C=C1C1CC1C1C2CCC2(C)C1C1CC1C21CCC(=O)O1 (centres undefined) [Drospirenone] | 1.09 | 1.04 | 1.01 | 1.05 | 1.05 | 1.03
CNCC[C@H](Oc1cccc2ccccc12)c1cccs1.[Cl-].[H+] [Duloxetine HCl] | 0.98 | 0.892 | 1 | 0.88 | 1.02 | 0.964
CC(C)(c1ccc(OCC(O)CO)cc1)c1ccc(OCC(O)CCl)cc1 (stereo not drawn) [EPI-001] | 1.07 | 0.993 | 1.05 | 1.01 | 1.07 | 1.01
CN1CCCC1Cc1c[nH]c2ccc(CCS(=O)(=O)c3ccccc3)cc12.[Br-].[H+] (centres undefined) [Eletriptan HBr] | 1.14 | 1.03 | 1.04 | 1.02 | 1.03 | 1.01
COc1ccc(CN(C(=O)C(N)Cc2c(C)cc(C(N)=O)cc2C)C(C)c2ncc(-c3ccccc3)[nH]2)cc1C(=O)O (centres undefined) [Eluxadoline] | 1.04 | 1 | 1.04 | 1.04 | 1.04 | 1.02
CNC[C@H](O)c1ccc(O)c(O)c1.O=C(O)[C@H](O)[C@@H](O)C(=O)O [Epinephrine Bitartrate] | 1.06 | 1.03 | 0.946 | 1.02 | 1.1 | 1.01
CNCC(O)c1ccc(O)c(O)c1.[Cl-].[H+] (centres undefined) [Epinephrine HCl] | 1.07 | 1.04 | 0.965 | 1 | 1.03 | 1.02
CCCCc1ncc(C=C(Cc2cccs2)C(=O)O)n1Cc1ccc(C(=O)O)cc1.CS(=O)(=O)O [Eprosartan mesylate] | 1.06 | 1.02 | 1.04 | 1.05 | 1.06 | 1.03
Oc1ccc([C@H]2COc3cc(O)ccc3C2)cc1 [Equol] | 1.08 | 1.07 | 1.02 | 1.01 | 1.05 | 1.05
CN(C)CCC[C@@]1(c2ccc(F)cc2)OCc2cc(C#N)ccc21.O=C(O)C(=O)O [Escitalopram Oxalate] | 1.1 | 1.03 | 1.02 | 1.02 | 1.02 | 0.985
CCCCC(=O)O[C@H]1CC[C@H]2[C@@H]3CCc4cc(O)ccc4[C@H]3CC[C@]12C [Estradiol valerate] | 1.05 | 1.04 | 1.01 | 1.03 | 1.05 | 1.02
C[C@]12CC[C@@H]3c4ccc(O)cc4CC[C@H]3[C@@H]1C[C@@H](O)[C@@H]2O [Estriol] | 1.01 | 0.979 | 0.988 | 0.987 | 1.01 | 0.989
C[C@]12CC[C@@H]3c4ccc(O)cc4CC[C@H]3[C@@H]1CCC2=O [Estrone] | 1.08 | 1.07 | 1.03 | 1 | 1.05 | 1.02
CCOC(=O)c1cncn1C(C)c1ccccc1 (centres undefined) [Etomidate] | 1.09 | 1.08 | 1.05 | 1.03 | 1.07 | 0.999
C#C[C@]1(O)CC[C@H]2[C@@H]3CCC4=CC(=O)CC[C@@H]4[C@H]3C(=C)C[C@@]21CC [Etonogestrel] | 0.993 | 0.958 | 0.976 | 1.03 | 1.05 | 1
CC1=C(C(=O)OC2CCCCC2)C(c2ccc([N+](=O)[O-])cc2)C2=C(CC(C)(C)CC2=O)N1 (centres undefined) [FLI-06] | 1.01 | 0.895 | 0.878 | 0.915 | 0.928 | 0.915
NC(N)=Nc1nc(CSCCC(N)=NS(N)(=O)=O)cs1 [Famotidine] | 1.09 | 1.02 | 1.02 | 1.05 | 1.08 | 1.03
NC(=O)OCC(COC(N)=O)c1ccccc1 [Felbamate] | 1.02 | 1.01 | 1.04 | 1.03 | 1.05 | 1.03
CC(C)C(=O)Oc1ccc(CO)cc1[C@H](CCN(C(C)C)C(C)C)c1ccccc1.O=C(O)/C=C/C(=O)O [Fesoterodine Fumarate] | 1 | 0.994 | 1.01 | 1.01 | 0.961 | 0.973

Structure (SMILES) | area under growth-rate inhibition curve (BT474-LTR) | area under growth-rate inhibition curve (BT474-P) | area under growth-rate inhibition curve (MDA-MB-231) | area under growth-rate inhibition curve (MDA-MB-468) | area under growth-rate inhibition curve (SKBR3-LTR) | area under growth-rate inhibition curve (SKBR3-P)
CC(C)(C(=O)O)c1ccc(C(O)CCCN2CCC(C(O)(c3ccccc3)c3ccccc3)CC2)cc1.[Cl-].[H+] (centres undefined) [Fexofenadine HCl] | 1.01 | 1.03 | 1 | 1.03 | 1.01 | 1.03
CCCCCCCCc1ccc(CCC(N)(CO)CO)cc1.Cl [Fingolimod (FTY720) HCl] | 0.96 | 0.836 | 0.829 | 0.864 | 0.814 | 0.901
CCOC(=O)c1ncn2c1CN(C)C(=O)c1cc(F)ccc1-2 [Flumazenil] | 1.06 | 1.03 | 1.01 | 1.02 | 1.03 | 0.989
CNCCC(Oc1ccc(C(F)(F)F)cc1)c1ccccc1.[Cl-].[H+] (centres undefined) [Fluoxetine HCl] | 1.03 | 1.02 | 1 | 1.03 | 1 | 1.02
C[C@]12CCC(=O)C=C1CC[C@H]1[C@@H]3CC[C@@](C)(O)[C@@]3(C)C[C@H](O)[C@@]12F [Fluoxymesterone] | 0.955 | 0.937 | 0.995 | 1.04 | 1.03 | 1.01
OCCN1CCN(CCCN2c3ccccc3Sc3ccc(C(F)(F)F)cc32)CC1.[Cl-].[Cl-].[H+].[H+] [Fluphenazine (dihydrochloride)] | 1.06 | 0.966 | 0.991 | 0.953 | 1.05 | 0.975
Cl.Cl.OCCN1CCN(CCCN2c3ccccc3Sc3ccc(C(F)(F)F)cc32)CC1 [Fluphenazine dihydrochloride?] | 1.02 | 1.01 | 1.03 | 1.03 | 1.05 | 1.02
CCC(=O)O[C@@]1(C(=O)SCF)[C@H](C)CC2C3CC(F)C4=CC(=O)C=C[C@]4(C)[C@]3(F)C(O)C[C@@]21C (some centres undefined) [Fluticasone propionate] | 1.04 | 0.985 | 0.973 | 1.04 | 1.05 | 0.915
COCCCC/C(=N\OCCN)c1ccc(C(F)(F)F)cc1.O=C(O)/C=C\C(=O)O [Fluvoxamine maleate] | 1.1 | 1.04 | 1.01 | 1.03 | 1.05 | 1.02
COc1ccc(C[C@H](C)NC[C@@H](O)c2ccc(O)c(NC=O)c2)cc1.COc1ccc(C[C@H](C)NC[C@@H](O)c2ccc(O)c(NC=O)c2)cc1.O=C(O)/C=C/C(=O)O [Formoterol Hemifumarate] | 1.05 | 1.01 | 0.93 | 1.01 | 1.09 | 1.03
C=C[C@@]1(C)CC(=O)[C@]2(O)[C@@]3(C)[C@@H](O)CCC(C)(C)[C@@H]3[C@H](O)[C@H](OC(C)=O)[C@@]2(C)O1 [Forskolin] | 1.02 | 0.984 | 0.924 | 1.01 | 1.04 | 1.03
CCC(=O)O[C@@H](OP(=O)(CCCCc1ccccc1)CC(=O)N1C[C@H](C2CCCCC2)C[C@H]1C(=O)[O-])C(C)C.[Na+] (some centres undefined) [Fosinopril Sodium] | 1.13 | 1.06 | 1.03 | 1.02 | 1.04 | 1.01
C[C@]12CC[C@@H]3c4ccc(O)cc4C[C@@H](CCCCCCCCCS(=O)CCCC(F)(F)C(F)(F)F)[C@H]3[C@@H]1CC[C@@H]2O (some centres undefined) [Fulvestrant] | 0.986 | 0.778 | 1.02 | 0.96 | 1.01 | 0.952
NCC1(CC(=O)O)CCCCC1 [Gabapentin] | 1.04 | 1 | 1.04 | 1.04 | 1.08 | 1.03
CC[N+](CC)(CC)CCOc1cccc(OCC[N+](CC)(CC)CC)c1OCC[N+](CC)(CC)CC.[I-].[I-].[I-] [Gallamine Triethiodide] | 1.08 | 1.02 | 1.03 | 1.01 | 1.03 | 1
C#C[C@]1(O)C=C[C@H]2[C@@H]3CCC4=CC(=O)CC[C@@H]4[C@H]3CC[C@@]21CC [Gestodene] | 1.04 | 0.981 | 1.03 | 1.03 | 1.12 | 1.01
NCC(=O)O [Glycine] | 1.05 | 1.03 | 1.04 | 1.03 | 1.06 | 1.03
N=C(N)N/N=C/c1c(Cl)cccc1Cl [Guanabenz Acetate] | 1.1 | 1.03 | 1.03 | 1 | 1.08 | 1.01
NC(N)=NCCCC(N)C(=O)NC(CCCN=C(N)N)C(=O)N1CCCC1C(=O)N1CC(O)CC1C(=O)NCC(=O)NC(Cc1cccs1)C(=O)NC(CO)C(=O)N1Cc2ccccc2CC1C(=O)N1C(C(=O)NC(CCCN=C(N)N)C(=O)O)CC2CCCCC21 (centres undefined) [HOE 140] | 1.06 | 1.03 | 1.01 | 1.02 | 1.04 | 1.04
O=C(CCCN1CCC(O)(c2ccc(Cl)cc2)CC1)c1ccc(F)cc1.[Cl-].[H+] [Haloperidol hydrochloride] | 1.07 | 1.03 | 1.04 | 1.04 | 1.05 | 1.01
COc1ccc([C@@H]2CC(=O)c3c(O)cc(O)cc3O2)cc1O [Hesperetin] | 1.02 | 1.01 | 1 | 0.996 | 1.02 | 1.03
CC[C@H](c1ccc(O)cc1)[C@@H](CC)c1ccc(O)cc1 [Hexestrol] | 1.06 | 1.05 | 1.02 | 0.973 | 0.993 | 0.989
Cl.Cl.NCCc1cnc[nH]1 [Histamine 2HCl] | 1.11 | 1.05 | 1.02 | 1.02 | 1.05 | 1.01
OCCOCCN1CCN(C(c2ccccc2)c2ccc(Cl)cc2)CC1.[Cl-].[Cl-].[H+].[H+] (centres undefined) [Hydroxyzine 2HCl] | 1.1 | 1.08 | 1.01 | 1.04 | 1.05 | 0.995
